# Measurements taken from US10287253B2, “Substituted pyrimidines containing acidic groups as TLR7 modulators” (Apros Therapeutics, Inc., priority 2016, dated 2019).
# Target: human TLR7 (hTLR7) (Homo sapiens (Human), UniProt Q9NYK1)
# Assay: HEK TLR7 assay (HEK-Blue hTLR7 cells, NF-kB/AP-1 SEAP reporter)
# Format: cell-based
# Conditions: Compound 20 vs Compound 20C
# Excerpt: HEK-Blue™ TLR7 cells were purchased from Invivogen (San Diego, Calif.). The following description was taken from the product information sheet.
# “HEK-Blue™ hTLR7 cells are designed for studying the stimulation of human TLR7 (hTLR7) by monitoring the activation of NF-kB. HEK-Blue™ hTLR7 cells were obtained by co-transfection of the hTLR7 gene and an optimized secreted embryonic alkaline phosphatase (SEAP) reporter gene into HEK293 cells. The SEAP reporter gene is placed under the control of the IFN-b minimal promoter fused to five NF-kB and AP-1-binding sites. Stimulation with a TLR7 ligand activates NF-kB and AP-1 which induce the production of SEAP, which is detected by the HEK-Blue™ Detection cell culture medium.”
# A typical assay protocol involved the following steps: • 1. Cells were cultured according to the product information sheet. • 2. 10 mM compound stock in DMSO were first diluted to 3 mM and then 3-fold serially diluted using DMSO to afford a 10-pt dilution. • 3. 3 μl of the diluted DMSO were added to 57 μl HEK-Blue™ Detection media for a further 20-fold dilution. • 4. 10 μl of the diluted compound in assay media were added into 40 μl cell culture (in HEK-Blue™ Detection media) in 384-well plate. Final cell concentration=8,000 cells per well. • 5. The plates were incubated at 37° C. in 5% CO2 for 16 h. SEAP was determined using a spectrophotometer at 620-655 nm.
# human TLR7 (hTLR7), sequence (Q9NYK1 27-1049): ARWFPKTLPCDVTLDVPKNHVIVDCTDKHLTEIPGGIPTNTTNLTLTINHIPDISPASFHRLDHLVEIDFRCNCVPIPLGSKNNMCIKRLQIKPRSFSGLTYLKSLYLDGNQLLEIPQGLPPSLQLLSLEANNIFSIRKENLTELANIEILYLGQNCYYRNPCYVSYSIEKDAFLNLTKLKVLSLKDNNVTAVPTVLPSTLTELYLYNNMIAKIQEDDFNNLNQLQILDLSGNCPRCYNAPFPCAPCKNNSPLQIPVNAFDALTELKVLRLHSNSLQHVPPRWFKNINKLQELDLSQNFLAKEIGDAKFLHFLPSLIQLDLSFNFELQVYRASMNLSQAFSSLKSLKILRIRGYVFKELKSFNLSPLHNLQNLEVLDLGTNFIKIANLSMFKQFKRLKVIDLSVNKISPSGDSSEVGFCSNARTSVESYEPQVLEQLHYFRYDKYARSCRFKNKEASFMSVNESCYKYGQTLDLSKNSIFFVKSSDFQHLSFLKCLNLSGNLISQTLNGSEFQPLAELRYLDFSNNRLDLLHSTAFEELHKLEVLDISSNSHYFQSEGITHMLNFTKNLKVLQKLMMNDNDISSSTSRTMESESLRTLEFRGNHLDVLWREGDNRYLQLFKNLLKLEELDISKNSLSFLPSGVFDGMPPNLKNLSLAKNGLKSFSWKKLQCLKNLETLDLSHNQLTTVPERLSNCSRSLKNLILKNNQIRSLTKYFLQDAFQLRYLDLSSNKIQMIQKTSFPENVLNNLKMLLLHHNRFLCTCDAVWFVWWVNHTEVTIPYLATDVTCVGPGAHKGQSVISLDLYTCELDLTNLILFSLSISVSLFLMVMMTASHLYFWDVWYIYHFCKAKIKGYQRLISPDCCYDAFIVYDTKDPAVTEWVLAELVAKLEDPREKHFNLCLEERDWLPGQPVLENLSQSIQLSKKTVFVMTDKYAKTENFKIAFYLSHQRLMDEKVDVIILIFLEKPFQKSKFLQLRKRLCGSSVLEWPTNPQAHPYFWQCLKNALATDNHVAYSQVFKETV
row,potency of (S)-enantiomer relative to (R)-enantiomer (Compound 20C) in the HEK-TLR7 assay,SMILES
1,> 10 fold,"CCCC[C@@H](CC(=O)O)Nc1nc(N)nc(C)c1Cc1cc(Cc2nn[nH]n2)ccc1OC [Compound 20, (S)-3-((5-(5-((2H-tetrazol-5-yl)methyl)-2-methoxybenzyl)-2-amino-6-methylpyrimidin-4-yl)amino)heptanoic acid]"

# Same assay, conditions: HEK-Blue hTLR7 cells, 16 h incubation, SEAP read at 620-655 nm
row,EC50,SMILES
1,100 to 1000 nM,"CCCC[C@@H](CCS(C)(=O)=O)Nc1nc(N)nc(CCC(=O)O)c1Cc1cc(CC(=O)O)ccc1OC [Compound 50, (S)-3-(2-amino-5-(5-(carboxymethyl)-2-methoxybenzyl)-6-((1-(methylsulfonyl)heptan-3-yl)amino)pyrimidin-4-yl)propanoic acid]"
2,< 100 nM,"CCCC[C@@H](CCSC)Nc1nc(N)nc(CCC(=O)O)c1Cc1cc(Cc2nn[nH]n2)ccc1OC [Compound 48, (S)-3-(5-(5-((2H-tetrazol-5-yl)methyl)-2-methoxybenzyl)-2-amino-6-((1-(methylthio)-heptan-3-yl)amino)pyrimidin-4-yl)propanoic acid]"
3,100 to 1000 nM,"CCCCCNc1nc(N)nc(C)c1Cc1cc(Cc2nn[nH]n2)ccc1OC [Compound 26, 5-(5-((2H-tetrazol-5-yl)methyl)-2-methoxybenzyl)-6-methyl-M-pentylpyrimidine-2,4-diamine]"
4,100 to 1000 nM,"CCCC(C)Nc1nc(N)nc(C)c1Cc1cc(Cc2nn[nH]n2)ccc1OC (stereo not drawn) [Compound 39, 5-(5-((2H-tetrazol-5-yl)methyl)-2-methoxybenzyl)-6-methyl-N^4-(pentan-2-yl)pyrimidine-2,4-diamine]"
5,< 100 nM,"CCCCNc1nc(N)nc(C)c1Cc1cc(B(O)O)ccc1OC [Compound 24, (3-((2-amino-4-(butylamino)-6-methylpyrimidin-5-yl)methyl)-4-methoxyphenyl)boronic acid]"
6,1000 to 10000 nM,"CCCCNc1nc(N)nc(CCC(=O)O)c1CCc1ccc(OC)cc1 [Compound 19, 3-(2-amino-6-(butylamino)-5-(4-methoxyphenethyl)pyrimidin-4-yl)pro-panoic acid]"
7,100 to 1000 nM,"CCCC[C@@H](CC(=O)O)Nc1nc(N)nc(C)c1Cc1cc(Cc2nn[nH]n2)ccc1OC [Compound 20, (S)-3-((5-(5-((2H-tetrazol-5-yl)methyl)-2-methoxybenzyl)-2-amino-6-methylpyrimidin-4-yl)amino)heptanoic acid]"
8,< 100 nM,"CCCC[C@@H](CCSC)Nc1nc(N)nc(CCC(=O)O)c1Cc1ccccc1OC [Compound 38, (S)-3-(2-amino-5-(2-methoxybenzyl)-6-((1-(methylthio)heptan-3-yl)amino)pyrimidin-4-yl)propanoic acid]"
9,100 to 1000 nM,"CCCC[C@@H](CCc1nn[nH]n1)Nc1nc(N)nc(C)c1Cc1ccccc1OC [Compound 36, (S)—N^4-(1-(2H-tetrazol-5-yl)heptan-3-yl)-S-(2-methoxybenzyl)-6-methylpyrimidine-2,4-diamine]"
10,100 to 1000 nM,"CCCCNc1nc(N)nc(CCc2nn[nH]n2)c1Cc1ccccc1OC [Compound 37, 6-(2-(2H-tetrazol-5-yl)ethyl)-N^4-butyl-5-(2-methoxybenzyl)pyrimidine-2,4-diamine]"
11,1000 to 10000 nM,"CCCCNc1nc(N)nc(C)c1Cc1cc(CCC(=O)O)ccc1OC [Compound 4, 3-(3-((2-amino-4-(butylamino)-6-methylpyrimidin-5-yl)methyl)-4-methoxyphenyl)propanoic acid]"
12,1000 to 10000 nM,"CCCCNc1nc(N)nc(C)c1Cc1cc(Cc2nnnn2CC(=O)O)ccc1OC [Compound 6, 2-(5-(3-((2-amino-4-(butylamino)-6-methylpyrimidin-5-yl)methyl)-4-methoxybenzyl)-1H-tetrazol-1-yl)acetic acid]"
13,1000 to 10000 nM,"CCCCNc1nc(N)nc(C)c1Cc1cc(Cc2nnn(CC(=O)O)n2)ccc1OC [Compound 5, 2-(5-(3-((2-amino-4-(butylamino)-6-methylpyrimidin-5-yl)methyl)-4-methoxybenzyl)-2H-tetrazol-2-yl)acetic acid]"
14,100 to 1000 nM,"CCCC[C@@H](CCS(C)(=O)=O)Nc1nc(N)nc(C)c1Cc1cc(CC(=O)O)ccc1OC [Compound 51, (S)-2-(3-((2-amino-4-methyl-6-((1-(methylsulfonyl)heptan-3-yl)amino)pyrimidin-5-yl)methyl)-4-methoxyphenyl)acetic acid]"
15,100 to 1000 nM,"CCCCNc1nc(N)nc(C)c1Cc1cc(C(=O)NCCCC(=O)O)ccc1OC [Compound 25, 4-(3-((2-amino-4-(butylamino)-6-methylpyrimidin-5-yl)methyl)-4-methoxybenzamido)butanoic acid]"
16,1000 to 10000 nM,"CCCCNc1nc(N)nc(C)c1Cc1cc(CP(=O)(O)O)ccc1OC [Compound 7, (3-((2-amino-4-(butylamino)-6-methylpyrimidin-5-yl)methyl)-4-methoxybenzyl)phosphonic acid]"
17,1000 to 10000 nM,"CCCCNc1nc(N)nc(C)c1Cc1ccc(CCC(=O)O)cc1OC [Compound 1, 3-(4-((2-amino-4-(butylamino)-6-methylpyrimidin-5-yl)methyl)-3-methoxyphenyl)propanoic acid]"
18,100 to 1000 nM,"CCCCNc1nc(N)nc(C)c1Cc1cc(C(=O)NCCS(=O)(=O)O)ccc1OC [Compound 16, 2-(3-((2-amino-4-(butylamino)-6-methylpyrimidin-5-yl)methyl)-4-methoxybenzamido)ethane-1-sulfonic acid]"
19,1000 to 10000 nM,"CCCCNc1nc(N)nc(C)c1Cc1cc(C2(C(=O)O)CC2)ccc1OC [Compound 14, 1-(3-((2-amino-4-(butylamino)-6-methylpyrimidin-5-yl)methyl)-4-methoxyphenyl)cyclopropane-1-carboxylic acid]"
20,1000 to 10000 nM,"CCCCNc1nc(N)nc(C)c1Cc1cc(C(=O)NCCCc2nn[nH]n2)ccc1OC [Compound 28, N-(3-(2H-tetrazol-5-yl)propyl)-3-((2-amino-4-(butylamino)-6-methyl-pyrimidin-5-yl)methyl)-4-methoxybenzamide]"
21,1000 to 10000 nM,"CCCCNc1nc(N)nc(C)c1Cc1ccc(Cc2nn[nH]n2)cc1OC [Compound 2, 5-(4-((2H-tetrazol-5-yl)methyl)-2-methoxybenzyl)-N4-butyl-6-methylpyrimidine-2,4-diamine]"
22,100 to 1000 nM,"CCCC[C@@H](CCO)Nc1nc(N)nc(CCC(=O)O)c1Cc1ccccc1OC [Compound 27, (S)-3-(2-amino-6-((1-hydroxyheptan-3-yl)amino)-5-(2-methoxybenzyl)-pyrimidin-4-yl)propanoic acid]"
23,1000 to 10000 nM,"CCCCNc1nc(N)nc(C)c1Sc1cc(Cc2nn[nH]n2)ccc1OC [Compound 31, 5-((5-((2H-tetrazol-5-yl)methyl)-2-methoxyphenyl)thio)-N^4-butyl-6-methylpyrimidine-2,4-diamine]"
24,100 to 1000 nM,"CCC[C@@H](CO)Nc1nc(N)nc(C)c1Cc1cc(Cc2nn[nH]n2)ccc1OC [Compound 8, (S)-2-((5-(5-((2H-tetrazol-5-yl)methyl)-2-methoxybenzyl)-2-amino-6-methylpyrimidin-4-yl)amino)pentan-1-ol]"
25,100 to 1000 nM,"CCCC[C@@H](CCOC)Nc1nc(N)nc(CCC(=O)O)c1Cc1cc(Cc2nn[nH]n2)ccc1OC [Compound 49, (S)-3-(5-(5-((2H-tetrazol-5-yl)methyl)-2-methoxybenzyl)-2-amino-6-((1-methoxyheptan-3-yl)amino)pyrimidin-4-yl)propanoic acid]"
26,1000 to 10000 nM,"CCCC[C@H](CC(=O)O)Nc1nc(N)nc(C)c1Cc1cc(Cc2nn[nH]n2)ccc1OC [Compound 20C, (R)-3-((5-(5-((2H-tetrazol-5-yl)methyl)-2-methoxybenzyl)-2-amino-6-methylpyrimidin-4-yl)amino)heptanoic acid]"
27,1000 to 10000 nM,"CCCC[C@@H](CCO)Nc1nc(N)nc(CCC(=O)O)c1OC [Compound 21, (S)-3-(2-amino-6-((1-hydroxyheptan-3-yl)amino)-5-methoxypyrimidin-4-yl)propanoic acid]"
28,100 to 1000 nM,"CCCCNc1nc(N)nc(CCCO)c1Cc1ccccc1OC [Compound 47, 3-(2-amino-6-(butylamino)-5-(2-methoxybenzyl)pyrimidin-4-yl)propan-1-ol]"

# System: not listed separately
# Assay: Pharmacokinetics experiments: mouse liver-to-serum concentration (L:S)
# Format: in vivo
# Conditions: BALB/c mice, 10 mg/kg p.o., 5 hour post dose
# Protocol: BALB/c mice were dosed p.o. with 10 mg/kg compound formulated in 0.5% carboxy methycellulose+0.5% Tween-80 suspension. Mice were bled retro-orbitally at different time points post dose. Blood was processed into serum by centrifugation followed by protein precipitation, reverse-phase gradient elution and MRM detection via ESI+mass spectrometry to determine compound concentration. Animals were sacrificed after the final blood collection (5 hour), liver removed and flash frozen in liquid nitrogen for tissue PK analyses. The liver-to-serum concentration (L:S) at 5 hour post dose is one parameter for identifying compounds with potential enrichment in liver.
# Mouse liver-to-serum concentration (L:S) table below provides results.
row,SMILES,L:S at 5 hr (liver-to-serum concentration)
1,"CCCCNc1nc(N)nc(C)c1Cc1cc(B(O)O)ccc1OC [Compound 24, (3-((2-amino-4-(butylamino)-6-methylpyrimidin-5-yl)methyl)-4-methoxyphenyl)boronic acid]",B (B = 10-100 represents moderate liver-enrichment)
2,"CCCC[C@@H](CCS(C)(=O)=O)Nc1nc(N)nc(C)c1Cc1cc(Cc2nn[nH]n2)ccc1OC [Compound 23, (S)-5-(5-((2H-tetrazol-5-yl)methyl)-2-methoxybenzyl)-6-methyl-N^4-(1-(methylsulfonyl)heptan-3-yl)pyrimidine-2,4-diamine]",A (A = >100 represents high liver-enrichment)
3,"CCCC[C@@H](CCSC)Nc1nc(N)nc(C)c1Cc1cc(Cc2nn[nH]n2)ccc1OC [Compound 22, (S)-5-(5-((2H-tetrazol-5-yl)methyl)-2-methoxybenzyl)-6-methyl-N^4-(1-(methylthio)heptan-3-yl)pyrimidine-2,4-diamine]",A (A = >100 represents high liver-enrichment)
4,"CCCC[C@@H](CC(=O)O)Nc1nc(N)nc(C)c1Cc1cc(Cc2nn[nH]n2)ccc1OC [Compound 20, (S)-3-((5-(5-((2H-tetrazol-5-yl)methyl)-2-methoxybenzyl)-2-amino-6-methylpyrimidin-4-yl)amino)heptanoic acid]",A (A = >100 represents high liver-enrichment)
